Assay results taken from patent US8993756B2 (Merck Sharp & Dohme Corp., priority 2011, dated 2015).

Columns and labels:
JAK3 = JAK3 (Homo sapiens (Human), UniProt P52333); assay: Jak Biochemical HTRF Assay (JAK3); conditions: recombinant GST-tagged catalytic domain, [ATP] 2.9 μM
JAK2 = JAK2 (Homo sapiens (Human), UniProt O60674); assay: Jak Biochemical HTRF Assay (JAK2); conditions: recombinant GST-tagged catalytic domain, [ATP] 8.5 μM
Chain of JAK2 (O60674 849-1124): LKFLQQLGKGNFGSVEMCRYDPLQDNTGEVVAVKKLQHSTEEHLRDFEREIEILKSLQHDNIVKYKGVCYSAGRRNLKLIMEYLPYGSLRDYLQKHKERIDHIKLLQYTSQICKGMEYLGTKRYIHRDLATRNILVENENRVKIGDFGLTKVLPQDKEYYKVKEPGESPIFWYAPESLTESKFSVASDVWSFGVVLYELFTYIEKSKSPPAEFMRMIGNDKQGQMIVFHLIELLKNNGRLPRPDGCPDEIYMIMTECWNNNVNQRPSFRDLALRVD

Chain of JAK3 (P52333 822-1111): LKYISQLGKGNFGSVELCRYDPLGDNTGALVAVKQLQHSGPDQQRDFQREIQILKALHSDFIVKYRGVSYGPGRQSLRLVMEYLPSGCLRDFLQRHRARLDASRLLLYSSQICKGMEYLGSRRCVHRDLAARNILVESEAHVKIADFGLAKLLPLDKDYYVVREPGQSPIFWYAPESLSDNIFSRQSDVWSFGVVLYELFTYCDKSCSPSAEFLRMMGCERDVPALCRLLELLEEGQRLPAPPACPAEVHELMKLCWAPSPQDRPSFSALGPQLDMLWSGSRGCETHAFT

Compound	IC50 (JAK3)	IC50 (JAK2)	IC50 (JAK3; given as range class)	IC50 (JAK2; given as range class)
CCOC(=O)c1c[nH]c2ncnc(-c3cccc(C)c3)c12 [Example 1-46, ethyl 4-(3-methylphenyl)-7H-pyrrolo[2,3-d]pyrimidine-5-carboxylate]	7.6 nM	143 nM	–	–
CCOC(=O)c1c[nH]c2ncnc(-c3ccc4scnc4c3)c12 [Example 1-82, ethyl 4-(1,3-benzothiazol-5-yl)-7H-pyrrolo[2,3-d]pyrimidine-5-carboxylate]	–	–	10 to 500 nM	10 to 500 nM
CCOC(=O)c1c[nH]c2ncnc(-c3ccc(F)cc3)c12 [Example 1-34, ethyl 4-(4-fluorophenyl)-7H-pyrrolo[2,3-d]pyrimidine-5-carboxylate]	–	–	10 to 500 nM	10 to 500 nM
CCOC(=O)c1c[nH]c2ncnc(-c3cccc(CN4CCOCC4)c3)c12 [Example 1-96, ethyl 4-[3-(morpholin-4-ylmethyl)phenyl]-7H-pyrrolo[2,3-d]pyrimidine-5-carboxylate]	–	–	10 to 500 nM	> 500 nM
CCOC(=O)c1c[nH]c2ncnc(-c3ccc4c(C(=O)N(C)C)n(C)nc4c3)c12 [Example 1-30, ethyl 4-[3-(dimethylcarbamoyl)-2-methyl-2H-indazol-6-yl]-7H-pyrrolo[2,3-d]pyrimidine-5-carboxylate]	–	–	10 to 500 nM	> 500 nM
CCOC(=O)c1c[nH]c2ncnc(-c3ccc(C(=O)N(C)C)cc3)c12 [Example 1-13, ethyl 4-[4-(dimethylcarbamoyl)phenyl]-7H-pyrrolo[2,3-d]pyrimidine-5-carboxylate]	–	–	10 to 500 nM	> 500 nM
CCOC(=O)c1c[nH]c2ncnc(-c3ccc(C)c(NCC(F)(F)F)c3)c12 [Example 3-2, ethyl 4-{4-methyl-3-[(2,2,2-trifluoroethyl)amino]phenyl}-7H-pyrrolo[2,3-d]pyrimidine-5-carboxylate]	–	–	10 to 500 nM	> 500 nM
CCOC(=O)c1c[nH]c2ncnc(C3=CCN(C(=O)OC(C)(C)C)CC3)c12 [Example 1-18, ethyl 4-[1-(tert-butoxycarbonyl)-1,2,3,6-tetrahydropyridin-4-yl]-7H-pyrrolo[2,3-d]pyrimidine-5-carboxylate]	–	–	10 to 500 nM	10 to 500 nM
CCOC(=O)c1c[nH]c2ncnc(-c3ccc4c(c3)CNC4=O)c12 [Example 1-65, ethyl 4-(1-oxo-2,3-dihydro-1H-isoindol-5-yl)-7H-pyrrolo[2,3-d]pyrimidine-5-carboxylate]	–	–	10 to 500 nM	10 to 500 nM
C=CC(=O)Nc1cccc(-c2ncnc3[nH]cc(C(=O)OCC)c23)c1C [Example 4-12, ethyl 4-[3-(acryloylamino)-2-methylphenyl]-7H-pyrrolo[2,3-d]pyrimidine-5-carboxylate]	0.19 nM	> 1500 nM	–	–
CCOC(=O)c1c[nH]c2ncnc(-c3ccnc(OC)c3)c12 [Example 1-89, ethyl 4-(2-methoxypyridin-4-yl)-7H-pyrrolo[2,3-d]pyrimidine-5-carboxylate]	–	–	10 to 500 nM	> 500 nM
C/C=C/C(=O)Nc1cccc(-c2ncnc3[nH]cc(C(=O)OCC)c23)c1 [Example 4-6, ethyl 4-{3-[(2E)-but-2-enoylamino]phenyl}-7H-pyrrolo[2,3-d]pyrimidine-5-carboxylate]	1.6 nM	483 nM	–	–
CCOC(=O)c1c[nH]c2ncnc(-c3ccccc3C)c12 [Example 1-38, ethyl 4-(2-methylphenyl)-7H-pyrrolo[2,3-d]pyrimidine-5-carboxylate]	–	–	10 to 500 nM	> 500 nM
CCOC(=O)c1c[nH]c2ncnc(C3=CCC(O)CC3)c12 (stereo not shown) [Example 1-86, ethyl 4-(4-hydroxycyclohex-1-en-1-yl)-7H-pyrrolo[2,3-d]pyrimidine-5-carboxylate]	–	–	10 to 500 nM	10 to 500 nM
CCOC(=O)c1c[nH]c2ncnc(-c3cccc4c3CCCNC4=O)c12 [Example 1-68, ethyl 4-(1-oxo-2,3,4,5-tetrahydro-1H-2-benzazepin-6-yl)-7H-pyrrolo[2,3-d]pyrimidine-5-carboxylate]	–	–	10 to 500 nM	> 500 nM

Further lines, results first:

IC50 (JAK3)	IC50 (JAK2)	IC50 (JAK3; given as range class)	IC50 (JAK2; given as range class)	Compound
6.6 nM	> 1500 nM	–	–	CCOC(=O)c1c[nH]c2ncnc(-c3cccc(NC(=O)/C(C)=C/CN(C)C)c3)c12 [Example 17, Ethyl 4-(3-{[(2E)-4-(dimethylamino)-2-methylbut-2-enoyl]amino}phenyl)-7H-pyrrolo[2,3-d]pyrimidine-5-carboxylate]
2.4 nM	> 1500 nM	–	–	CCOC(=O)c1c[nH]c2ncnc(-c3cccc(NC(=O)/C=C/c4c[nH]c5ccccc45)c3)c12 [Example 5-19, ethyl 4-(3-{[(2E)-3-(1H-indo1-3-yl)prop-2-enoyl]amino}phenyl)-7H-pyrrolo[2,3-d]pyrimidine-5-carboxylate]
9.2 nM	109 nM	–	–	CCOC(=O)c1c[nH]c2ncnc(-c3cccc(Nc4nc(Cl)ns4)c3)c12 [Example 6-1, Ethyl 4-{3-[(3-chloro-1,2,4-thiadiazol-5-yl)amino]phenyl}-7H-pyrrolo[2,3-d]pyrimidine-5-carboxylate]
–	–	10 to 500 nM	> 500 nM	C=C(C)C(=O)Nc1cccc(-c2ncnc3[nH]cc(C4=NCC(C)O4)c23)c1 (stereo not shown) [Example 28, N-(3-(5-(5-Methyl-4,5-dihydrooxazol-2-yl)-7H-pyrrolo[2,3-d]pyrimidin-4-yl)phenyl)methacrylamide]
–	–	10 to 500 nM	> 500 nM	C/C=C(\C)C(=O)Nc1cccc(-c2ncnc3[nH]cc(C(=O)OCC)c23)c1 [Example 5-31, ethyl 4-(3-{[(2E)-2-methylbut-2-enoyl]aminol}phenyl)-7H-pyrrolo[2,3-d]pyrimidine-5-carboxylate]
1.8 nM	> 500 nM	–	–	C=C(C)C(=O)Nc1cccc(-c2ncnc3[nH]cc(-c4cncs4)c23)c1 [Example 21-7, N-(3-(5-(thiazol-5-yl)-7H-pyrrolo[2,3-d]pyrimidin-4-yl)phenyl)methacrylamide]
0.11 nM	> 1500 nM	–	–	C=C(C)C(=O)Nc1cc(-c2ncnc3[nH]cc(C(=O)OCC)c23)ccc1CO [Example 4-25, ethyl 4-{4-(hydroxymethyl)-3-[(2-methylacryloyl)amino]phenyl}-7H-pyrrolo[2,3-d]pyrimidine-5-carboxylate]
–	–	10 to 500 nM	> 500 nM	C=C(C)C(=O)Nc1cccc(-c2ncnc3[nH]cc(-c4ccc(CN)cc4)c23)c1 [Example 19, N-(3-{5-[4-(Aminomethyl)phenyl]-7H-pyrrolo[2,3-d]pyrimidin-4-yl}phenyl)-2-methylprop-2-enamide]
–	–	10 to 500 nM	> 500 nM	C=C(C)C(=O)Nc1cccc(-c2ncnc3[nH]cc(-c4nnc(C)s4)c23)c1 [Example 27, N-(3-(5-(5-Methyl-1,3,4-thiadiazol-2-yl)-7H-pyrrolo[2,3-d]pyrimidin-4-yl)phenyl)methacrylamide]
–	–	10 to 500 nM	> 500 nM	CCOC(=O)c1c[nH]c2ncnc(-c3cccc(NC(=O)CCC(C)=O)c3)c12 [Example 5-7, ethyl 4-{3-[(4-oxopentanoyl)amino]phenyl}-7H-pyrrolo[2,3-d]pyrimidine-5-carboxylate]
–	–	10 to 500 nM	> 500 nM	CCOC(=O)c1c[nH]c2ncnc(-c3cccc(NC(=O)C(C)(O)CO)c3)c12 (stereo not shown) [Example 18-2, Ethyl-4-(3-(2,3-dihydroxy-2-methylpropanamido)phenyl)-7H-pyrrolo[2,3-d]pyrimidine-5-carboxylate]
